# Test results reported in PubChem BioAssay (NCI).
#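 The compound was tested at five concentrations on cells cultured in 96-well plates, with a 48-hour exposure period. GI50 = concentration required for 50% inhibition of growth. TGI: concentration producing complete growth inhibition.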
# Tests used:
# Test in all cases: inhibition of tumour cell growth, NCI panel, 48 h
# CCRF-CEM leukemia = test system: CCRF-CEM leukemia
# HOP-62 NSCLC = test system: HOP-62 NSCLC
# HS 578T breast = test system: HS 578T breast
# MDA-N = test system: MDA-N
# OVCAR-4 ovarian = test system: OVCAR-4 ovarian
# PC-3 prostate = test system: PC-3 prostate
# TK-10 renal = test system: TK-10 renal
# DLD-1 colon = test system: DLD-1 colon
# KM20L2 colon = test system: KM20L2 colon
# SK-MEL-28 melanoma = test system: SK-MEL-28 melanoma
# MCF7 breast = test system: MCF7 breast
Structure (SMILES),TGI (CCRF-CEM leukemia),TGI (HOP-62 NSCLC),TGI (HS 578T breast),TGI (MDA-N),TGI (OVCAR-4 ovarian),TGI (PC-3 prostate),TGI (TK-10 renal),TGI (DLD-1 colon) [µM],TGI (KM20L2 colon) [µM],TGI (SK-MEL-28 melanoma),GI50 (HOP-62 NSCLC),GI50 (HS 578T breast),GI50 (MCF7 breast),TGI (MCF7 breast),GI50 (OVCAR-4 ovarian),GI50 (PC-3 prostate),GI50 (SK-MEL-28 melanoma),GI50 (TK-10 renal),GI50 (CCRF-CEM leukemia) [µg/mL],GI50 (MDA-N) [µg/mL]
Clc1ccc(N=c2oc3ccccc3cc2-c2nc3ccccc3[nH]2)c(Cl)c1,> 100 µM,65.1 µM,78.3 µM,> 100 µM,> 100 µM,> 100 µM,69.9 µM,,,,,,,,,,,,,
NCCCCNCCCNC(=O)c1nc(-c2csc(CCN)n2)sc1Cl,> 100 µM,> 100 µM,,,> 100 µM,,> 100 µM,> 100,> 100,> 100 µM,,,,,,,,,,
COc1cc(S(=O)(=O)Nc2ccc(C3=NNC(c4ccccc4)C3)cc2)ccc1F (stereo not drawn),,80.4 µM,77.8 µM,,> 100 µM,> 100 µM,54.7 µM,,,> 100 µM,22.7 µM,16.7 µM,22.2 µM,> 100 µM,50.6 µM,29.8 µM,> 100 µM,13.9 µM,,
COc1cc(/C=C2/N=C(c3ccccc3)N(C3=NNC4(C(=O)N3)c3ccccc3-c3ccccc34)NC2=O)ccc1O,> 150 µg/mL,56.2 µg/mL,42.5 µg/mL,65 µg/mL,62.1 µg/mL,79.6 µg/mL,78.2 µg/mL,,,60.4 µg/mL,23.4 µg/mL,19.8 µg/mL,33.2 µg/mL,77.1 µg/mL,27.4 µg/mL,29.5 µg/mL,31.3 µg/mL,35.8 µg/mL,46.3,31.1
C#CCn1c(=O)c(C#N)c(O)c2cc3ccccc3nc21,> 100 µM,> 100 µM,,,,,,> 100,,> 100 µM,,,,> 100 µM,,,,,,
O=C(N[C@H]1c2ccsc2/C(=N/O)[C@H]1O)C(F)(F)F,> 100 µM,> 100 µM,> 100 µM,> 100 µM,,> 100 µM,> 100 µM,,,> 100 µM,,,,> 100 µM,,,,,,
CC1(Cl)CC2C(CC1Sc1nnnn1-c1ccccc1)C2(C)C (stereo not drawn),> 100 µM,> 100 µM,,,> 100 µM,,> 100 µM,> 100,> 100,> 100 µM,,,,,,,,,,
CC(=O)Oc1ccc(C2COc3cc(OC(C)=O)c(OC(C)=O)cc3C2)cc1 (stereo not drawn),58.1 µM,48 µM,,,29.1 µM,,,38,75.5,34.2 µM,,,,35.2 µM,,,,,,
